What was measured:
MSCs = test: MSC morphology during cardiac induction with 5-aza; format: cell-based, human; conditions: MSCs treated with 5-aza
Text: In order to establish morphology changes occurred in MSCs treated with 5-aza, photographs were taken daily for later analysis. […] After 20 days, confluence in both conditions was quite similar and reached 100%. In some dishes, it was common to find a reduced percentage (10%) of cells with vacuoles inside them. On the other hand, it was also noted that a large percentage (approximately 70%) of cells adopted a rounded and flat morphology, while other presented a longish tubular morphology which, in some cases, were multi-core.
For induction, MSCs we incubated with DMEM, 2% FBS, 1% Pen/Strep, 1% L-glutamine, supplemented with 10 μM 5-zacitidine (Sigma, USA) during 24 hours, and kept in a humidified and thermo-regulated incubator at 37° C. and 5% CO2. Later, they were removed from the induction medium, cells were washed three times with PBS 1× adjusted to ph 7.4 (Life Technologies, USA), and cultured in a maintenance medium during 30 days, being renewed every three days. The control condition corresponded to cells submitted to DMEM 2% FBS with no 5-aza during 24 hours, and then cultured in maintenance medium during 30 days.

[1] = system: genes involved in cardio-myogenesis (NKX2-5, GATA-4, MEF2C, MYH7B, GJA1, TNNT2); test: Cardio-myogenic induction with 5-azacytidine, relative gene expression by RT-qPCR; format: cell-based, human; conditions: all MSC sources treated with 5-aza, 30 days of culture after induction
Text: In order to assess chorion, decidua, gelatin of Wharton, and bone marrow MSCs cardio-myogenic potential, 3000 cells per cm^2 of each one of the MSCs were planted in biologic triplicate (3 different donors) in a plate of 6, leaving 3 bowls for induced condition and other 3 for control condition. This method was developed to obtain cells for assessment through RT-qPCR. However, in order to assess protein expression through indirect immunofluorescence (IFI), cells were planted on a […] circular glass cover placed on a 24-bowl plate, leaving 12 bowls for induced condition and 12 bowls for control condition. […]
The polymerase chain reaction in real time, preceded by reverse transcription (RT-qPCR), was based on quantification kinetics that allowed calculating the messenger RNA through the recording of PCR product forming in real time. This was the quantification, during the reaction exponential stage, of amplified PCR products and labeled with fluorochrome. In this work, a relative quantification of genes of interest was carried out, i.e. a gene of interest expression level is obtained compared to another one that keeps its expression constant and is called standardizing gene; therefore, in this thesis human gene B2M was selected as standardizing. […]

Nc1ncn([C@@H]2O[C@H](CO)[C@@H](O)[C@H]2O)c(=O)n1 [5-aza, 5-azacytidine]
percentage of cells with rounded and flat morphology (MSCs): approximately 70%
percentage of cells with vacuoles inside them (MSCs; in some dishes): 10%
relative expression of all genes associated to cardio-myogenesis compared to control [1]: significant increase

Source: patent US20160193250A1, “CHORION-DERIVED MSCS CELLS AND CONDITIONED MEDIA AS INDUCER FOR ANGIOGENESIS APPLICATION FOR THE TREATMENT OF CARDIAC DEGENERATION” (CELLS FOR CELLS, priority 2013, published 2016)
